US8993604B2, “Treatment and prevention of dengue virus infections” (Siga Technologies, Inc., priority 2009, dated 2015)

Columns and labels:
[1] = tested on: all four serotypes of dengue; assay: Yield assays against each of the four serotypes of dengue; assay type: cell-based, dengue virus; details: yield assays at several drug concentrations
Description: Initially, the chemical structures of the hit compounds were examined for chemical tractability. […] Hits that passed this medicinal chemistry filter were evaluated for their potency. Compound potency was determined by evaluating inhibitory activity across a broad range of concentrations. Nonlinear regression was used to generate best-fit inhibition curves and to calculate the 50% effective concentration (EC50). The selectivity or specificity of a given compound is typically expressed as a ratio of its cytotoxicity to its biological effect. A cell proliferation assay is used to calculate a 50% cytotoxicity concentration (CC50); the ratio of this value to the EC50 is referred to as the therapeutic index (T.I.=CC50/EC50). Two types of assays have been used to determine cytotoxicity, both of which are standard methods for quantitating the reductase activity produced in metabolically active cells (22). […] Verification that these compounds act against each of the four serotypes of dengue was done with yield assays carried out at several drug concentrations, and the titer determined for each.
Compounds that were active in the primary screen were tested for activity in viral yield assays. […] The EC50 was calculated through ExcelFit. Activities against other serotypes of dengue virus were determined in a similar way.

[2] = tested on: Dengue-2 (Strain New Guinea C); assay: Viral yield assay in Vero cells; assay type: cell-based; details: Dengue virus; Vero cells, MOI 0.1, harvested 48 hours post infection; read-out: Activity (anti-dengue 2 viral activity, EC50 class)
Summary of the method: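 Infect Vero cells with virus (MOI 0.1), add compound or DMSO, incubate at 37° C, collect progeny at 48 hours post infection, then titrate on Vero cells to obtain EC50.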

COc1ccc(C(=O)Nc2ccc(-c3nc4ccc(C)cc4s3)cc2)c(OC)c1 [Compound 3, 2,4-Dimethoxy-N-[4-(6-methyl-benzothiazol-2-yl)-phenyl]-benzamide]
activity against all four serotypes of dengue [1]: activity against all four serotypes of dengue
EC50 [2]: < 1 µM
